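Interpolation was linear, between the two tested concentrations surrounding the appropriate level; five concentrations were tested over 48 hours in 96-well plates. Here, GI50 denotes the concentration required for 50% inhibition of growth.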 Activity calls are given as the source filed them. No stated cut-off is given here; in the data, active = GI50 up to about 1.1 µM and inactive = higher.
Columns and labels:
Assay in all cases: NCI-60 cell line screen, 48 h
786-0 = tested on: 786-0
A498 = tested on: A498
A549 = tested on: A549
ACHN = tested on: ACHN
BT-549 = tested on: BT-549
CAKI-1 = tested on: CAKI-1
CCRF-CEM = tested on: CCRF-CEM
COLO 205 = tested on: COLO 205
DU-145 = tested on: DU-145
EKVX = tested on: EKVX
HCC 2998 = tested on: HCC 2998
HCT-116 = tested on: HCT-116
HCT-15 = tested on: HCT-15
HL-60 = tested on: HL-60
HOP-92 = tested on: HOP-92
HT-29 = tested on: HT-29
Hs-578T = tested on: Hs-578T
IGROV-1 = tested on: IGROV-1
K562 = tested on: K562
KM12 = tested on: KM12
LOX IMVI = tested on: LOX IMVI
M14 = tested on: M14
MCF7 = tested on: MCF7
MDA-MB-231 = tested on: MDA-MB-231
MDA-MB-435 = tested on: MDA-MB-435
MDA-N = tested on: MDA-N
MOLT-4 = tested on: MOLT-4
Malme-3M = tested on: Malme-3M
NCI-H226 = tested on: NCI-H226
NCI-H23 = tested on: NCI-H23
NCI-H460 = tested on: NCI-H460
NCI-H522 = tested on: NCI-H522
NCI/ADR-RES = tested on: NCI/ADR-RES
OVCAR-4 = tested on: OVCAR-4
OVCAR-5 = tested on: OVCAR-5
OVCAR-8 = tested on: OVCAR-8
PC-3 = tested on: PC-3
RPMI-8226 = tested on: RPMI-8226
RXF 393 = tested on: RXF 393
SF-268 = tested on: SF-268
SF-539 = tested on: SF-539
SK-MEL-28 = tested on: SK-MEL-28
SK-MEL-2 = tested on: SK-MEL-2
SK-MEL-5 = tested on: SK-MEL-5
SN12C = tested on: SN12C
SNB-19 = tested on: SNB-19
SNB-75 = tested on: SNB-75
SR = tested on: SR
SW-620 = tested on: SW-620
T47D = tested on: T47D
TK-10 = tested on: TK-10
U-251 = tested on: U-251
UACC-257 = tested on: UACC-257
UACC-62 = tested on: UACC-62
UO-31 = tested on: UO-31
HOP-62 = tested on: HOP-62
OVCAR-3 = tested on: OVCAR-3
SF-295 = tested on: SF-295
SK-OV-3 = tested on: SK-OV-3

For `O=C1CSC2(CC(/C=C/c3cccc([N+](=O)[O-])c3)=NN2c2cccc(S(=O)(=O)O)c2)N1c1nc2ccccc2s1` (configuration not stated), the GI50 (786-0) was 18 µM (inactive), the GI50 (A498) was 20.4 µM (inactive) and the GI50 (A549) was 25.8 µM (inactive). For the same compound, the GI50 (ACHN) was 25.8 µM (inactive), the GI50 (BT-549) was 16.3 µM (inactive) and the GI50 (CAKI-1) was 49.7 µM (inactive). The GI50 (CCRF-CEM) was 20.7 µM (inactive), the GI50 (COLO 205) was 50.8 µM (inactive) and the GI50 (DU-145) was 19.6 µM (inactive). The GI50 (EKVX) was 44.8 µM (inactive), the GI50 (HCC 2998) was 35.6 µM (inactive) and the GI50 (HCT-116) was 32.6 µM (inactive). The GI50 (HCT-15) was 18.1 µM, the GI50 (HL-60) was 28.1 µM (inactive) and the GI50 (HOP-92) was 9.46 µM (inactive). For the same compound, the GI50 (HT-29) was 31.4 µM (inactive), the GI50 (Hs-578T) was 55.3 µM (inactive) and the GI50 (IGROV-1) was 13.9 µM (inactive). For the same compound, the GI50 (K562) was 28.6 µM (inactive), the GI50 (KM12) was 22 µM (inactive) and the GI50 (LOX IMVI) was 13.6 µM (inactive). The GI50 (M14) was 30.7 µM (inactive), the GI50 (MCF7) was 17.6 µM (inactive) and the GI50 (MDA-MB-231) was 19.1 µM (inactive). For the same compound, the GI50 (MDA-MB-435) was 18.5 µM (inactive), the GI50 (MDA-N) was 25.1 µM (inactive) and the GI50 (MOLT-4) was 22.4 µM (inactive). The GI50 (Malme-3M) was 51.3 µM (inactive), the GI50 (NCI-H226) was 25.4 µM (inactive) and the GI50 (NCI-H23) was 16.7 µM (inactive). For the same compound, the GI50 (NCI-H460) was 21.2 µM (inactive), the GI50 (NCI-H522) was 18.3 µM (inactive) and the GI50 (NCI/ADR-RES) was 22.5 µM (inactive). For the same compound, the GI50 (OVCAR-4) was 25.2 µM (inactive), the GI50 (OVCAR-5) was 23.4 µM (inactive) and the GI50 (OVCAR-8) was 13.8 µM (inactive). The GI50 (PC-3) was 21.4 µM (inactive), the GI50 (RPMI-8226) was 17.4 µM (inactive) and the GI50 (RXF 393) was 34.2 µM (inactive). The GI50 (SF-268) was 26 µM (inactive), the GI50 (SF-539) was 29.6 µM (inactive) and the GI50 (SK-MEL-28) was 57 µM (inactive). For the same compound, the GI50 (SK-MEL-2) was 22.9 µM (inactive), the GI50 (SK-MEL-5) was 28.1 µM (inactive) and the GI50 (SN12C) was 22.4 µM (inactive). For the same compound, the GI50 (SNB-19) was 21 µM (inactive), the GI50 (SNB-75) was 20 µM (inactive) and the GI50 (SR) was 19.6 µM (inactive). For the same compound, the GI50 (SW-620) was 26.8 µM (inactive), the GI50 (T47D) was 24.6 µM (inactive) and the GI50 (TK-10) was 20 µM (inactive). For the same compound, the GI50 (U-251) was 17.6 µM (inactive), the GI50 (UACC-257) was 38.9 µM (inactive) and the GI50 (UACC-62) was 19.1 µM (inactive). The GI50 (UO-31) was 19.6 µM (inactive).
In the case of `O=S1(=O)C(c2ccccc2)C(N2CCCCC2)C1C1CC2c3ccccc3C1c1ccccc12` (configuration not stated), the GI50 (786-0) is reported as > 100 µM (inactive), the GI50 (A498) is reported as > 100 µM (inactive) and the GI50 (A549) is reported as 8.17 µM (inactive). The GI50 (ACHN) was > 100 µM (inactive), the GI50 (BT-549) was > 100 µM (inactive) and the GI50 (CAKI-1) was > 100 µM (inactive). For the same compound, the GI50 (CCRF-CEM) was 2.45 µM (inactive), the GI50 (COLO 205) was 14.8 µM (inactive) and the GI50 (DU-145) was > 100 µM (inactive). For the same compound, the GI50 (EKVX) was > 100 µM (inactive), the GI50 (HCT-116) was 5.69 µM (inactive) and the GI50 (HCT-15) was > 48.5 µM. The GI50 (HL-60) was 2.86 µM (inactive), the GI50 (HOP-62) was > 100 µM (inactive) and the GI50 (HOP-92) was 8.81 µM (inactive). The GI50 (HT-29) was 10.6 µM (inactive), the GI50 (Hs-578T) was > 100 µM (inactive) and the GI50 (IGROV-1) was > 94 µM (inactive). For the same compound, the GI50 (K562) was 5.56 µM (inactive), the GI50 (KM12) was 23.3 µM (inactive) and the GI50 (LOX IMVI) was > 100 µM (inactive). For the same compound, the GI50 (M14) was > 100 µM (inactive), the GI50 (MCF7) was 30.8 µM (inactive) and the GI50 (MDA-MB-231) was > 100 µM (inactive). The GI50 (MDA-MB-435) was > 30.7 µM (inactive), the GI50 (MDA-N) was > 100 µM (inactive) and the GI50 (MOLT-4) was 5.47 µM (inactive). For the same compound, the GI50 (Malme-3M) was > 100 µM (inactive), the GI50 (NCI-H226) was > 100 µM (inactive) and the GI50 (NCI-H23) was > 100 µM (inactive). The GI50 (NCI-H460) was 17.6 µM (inactive), the GI50 (NCI-H522) was 9.95 µM (inactive) and the GI50 (NCI/ADR-RES) was > 28 µM (inactive). For the same compound, the GI50 (OVCAR-3) was 17.6 µM (inactive), the GI50 (OVCAR-4) was 7.98 µM (inactive) and the GI50 (OVCAR-5) was > 100 µM (inactive). For the same compound, the GI50 (OVCAR-8) was > 100 µM (inactive), the GI50 (PC-3) was > 30 µM (inactive) and the GI50 (RPMI-8226) was 4.5 µM (inactive). For the same compound, the GI50 (RXF 393) was > 100 µM (inactive), the GI50 (SF-268) was > 100 µM (inactive) and the GI50 (SF-295) was > 100 µM (inactive). The GI50 (SF-539) was > 100 µM (inactive), the GI50 (SK-MEL-2) was > 100 µM (inactive) and the GI50 (SK-MEL-5) was 45.1 µM (inactive). The GI50 (SK-OV-3) was > 100 µM (inactive), the GI50 (SN12C) was > 35.8 µM (inactive) and the GI50 (SNB-19) was > 100 µM (inactive). The GI50 (SNB-75) was > 100 µM (inactive), the GI50 (SR) was 5.93 µM (inactive) and the GI50 (SW-620) was > 28.4 µM (inactive). For the same compound, the GI50 (T47D) was 10.4 µM (inactive), the GI50 (TK-10) was > 100 µM (inactive) and the GI50 (U-251) was > 85.1 µM (inactive). The GI50 (UACC-257) was > 92.7 µM (inactive), the GI50 (UACC-62) was > 100 µM (inactive) and the GI50 (UO-31) was > 54.7 µM (inactive).
For `C/C=C(/C)C(=O)O[C@H](C[C@@H](C)[C@H]1CC(c2ccoc2)OC1=O)[C@@]1(C)C(=O)CCC2O[C@]21C` (some centres not stated), the GI50 (786-0) was > 100 µM (inactive), the GI50 (A498) was > 100 µM (inactive) and the GI50 (A549) was > 100 µM (inactive). For the same compound, the GI50 (ACHN) was > 100 µM (inactive), the GI50 (BT-549) was > 100 µM (inactive) and the GI50 (CAKI-1) was > 100 µM (inactive). For the same compound, the GI50 (CCRF-CEM) was > 100 µM (inactive), the GI50 (COLO 205) was > 100 µM (inactive) and the GI50 (DU-145) was > 100 µM (inactive). For the same compound, the GI50 (EKVX) was > 100 µM (inactive), the GI50 (HCC 2998) was > 100 µM (inactive) and the GI50 (HCT-116) was > 100 µM (inactive). For the same compound, the GI50 (HCT-15) was > 100 µM, the GI50 (HL-60) was > 100 µM (inactive) and the GI50 (HT-29) was > 100 µM (inactive). The GI50 (Hs-578T) was > 100 µM (inactive), the GI50 (IGROV-1) was > 100 µM (inactive) and the GI50 (K562) was > 100 µM (inactive). For the same compound, the GI50 (KM12) was > 100 µM (inactive), the GI50 (LOX IMVI) was > 100 µM (inactive) and the GI50 (M14) was > 100 µM (inactive). For the same compound, the GI50 (MCF7) was > 100 µM (inactive), the GI50 (MDA-MB-231) was > 100 µM (inactive) and the GI50 (MDA-MB-435) was > 100 µM (inactive). For the same compound, the GI50 (MDA-N) was > 100 µM (inactive), the GI50 (MOLT-4) was > 100 µM (inactive) and the GI50 (Malme-3M) was > 100 µM (inactive). The GI50 (NCI-H226) was > 100 µM (inactive), the GI50 (NCI-H23) was > 100 µM (inactive) and the GI50 (NCI-H460) was > 100 µM (inactive). The GI50 (NCI-H522) was > 100 µM (inactive), the GI50 (NCI/ADR-RES) was > 100 µM (inactive) and the GI50 (OVCAR-3) was > 100 µM (inactive). The GI50 (OVCAR-4) was > 100 µM (inactive), the GI50 (OVCAR-5) was > 100 µM (inactive) and the GI50 (OVCAR-8) was > 100 µM (inactive). The GI50 (PC-3) was > 100 µM (inactive), the GI50 (RPMI-8226) was > 100 µM (inactive) and the GI50 (RXF 393) was > 100 µM (inactive). For the same compound, the GI50 (SF-295) was > 100 µM (inactive), the GI50 (SF-539) was > 100 µM (inactive) and the GI50 (SK-MEL-28) was > 100 µM (inactive). The GI50 (SK-MEL-2) was > 100 µM (inactive), the GI50 (SK-MEL-5) was > 100 µM (inactive) and the GI50 (SK-OV-3) was > 100 µM (inactive). The GI50 (SNB-19) was > 100 µM (inactive), the GI50 (SNB-75) was > 100 µM (inactive) and the GI50 (SR) was > 100 µM (inactive). The GI50 (SW-620) was > 100 µM (inactive), the GI50 (T47D) was > 100 µM (inactive) and the GI50 (TK-10) was > 100 µM (inactive). The GI50 (U-251) was > 100 µM (inactive), the GI50 (UACC-257) was > 100 µM (inactive) and the GI50 (UACC-62) was > 100 µM (inactive). For the same compound, the GI50 (UO-31) was > 100 µM (inactive).

Source: ChEMBL document CHEMBL1201862, “PubChem BioAssay data set” (2004)
